Measurements: US20260285857A1, “BICYCLIC AND HETEROCYCLIC AMIDE COMPOUNDS” (priority 2024, published 2026)

Tested on: immunoglobulin light chain protein WIL-FL T46L
Test: Differential scanning fluorimetry (thermal shift) assay
Assay type: binding
Details: Table A; temperature shift [Tm]compound-[Tm]vehicle; recombinant WIL-FL T46L

Row | SMILES | DSF
1 | Cc1cc(N2CC[C@](C)(c3ccccc3)C2)cn2nc(C(=O)N3CCC(N4CC5C(C4)C5C(=O)O)CC3)nc12 (stereo partly drawn) [Compound 366] | ***** (>2.5° C.=*****)
2 | COC(=O)c1cccc(N2C[C@H]3CN(C(=S)c4nc5c(C)cc(N6CCC(C)(c7nnc(C)s7)C6)cn5n4)C[C@H]3C2)n1 (stereo partly drawn) [Compound 38, methyl 6-[5-[8-methyl-6-[3-methyl-3-(5-methyl-1,3,4-thiadiazol-2-yl)pyrrolidin-1-yl]-[1,2,4]triazolo[1,5-a]pyridine-2-carbothioyl]-1,3,3a, 4,6,6a-hexahydropyrrolo[3,4-c]pyrrol-2-yl]pyridine-2-carboxylate] | * (0-0.5° C.=*)
3 | Cc1cc(N2CC[C@](C)(c3ccccc3)C2)cn2nc(C(=O)NC3(C)CCNC3)nc12 (stereo partly drawn) [Compound 189] | ***** (>2.5° C.=*****)
4 | Cc1cc(N2CC[C@](C)(c3ccccc3)C2)cn2nc(C(=O)NCC34CCCN3CC(F)C4)nc12 (stereo partly drawn) [Compound 171] | ***** (>2.5° C.=*****)
5 | Cc1cc(N2CC3(CCC3c3ccccc3)C2)cn2nc(C(=O)N3C[C@@H]4CN(c5cccc(C(=O)O)n5)C[C@@H]4C3)nc12 (stereo partly drawn) [Compound 291] | ***** (>2.5° C.=*****)
6 | Cc1cc(N2CC[C@](C)(c3ccccc3)C2)cn2nc(C(=O)N3CCOCC34CN(c3cccc(C(=O)O)n3)C4)nc12 [Compound 259] | ***** (>2.5° C.=*****)
7 | Cc1cc(N2CC[C@](C)(c3ccccc3)C2)cn2nc(C(=O)NCC(C)(C)O)nc12 [Compound 100] | ***** (>2.5° C.=*****)
8 | Cc1cc(N2CC[C@](C)(c3ccccc3)C2)cn2nc(C34CC(CO3)C4c3cn(C)nn3)nc12 (stereo partly drawn) [Compound 11, 8-methyl-6-[(3R)-3-methyl-3-phenyl-pyrrolidin-1-yl]-2-[5-(1-methyltriazol-4-yl)-2-oxabicyclo[2.1.1]hexan-1-yl]-[1,2,4]triazolo[1,5-a]pyridine] | ***** (>2.5° C.=*****)

Same assay, conditions: Table B; temperature shift [Tm]compound-[Tm]vehicle; recombinant WIL-FL T46L

Row | SMILES | DSF
9 | Cc1cc(N2CC[C@](C)(c3ccccc3)C2)cn2nc(C(=O)NC3CC4(C3)CN(C(=O)C35CC(C(=O)O)(C3)C5)C4)nc12 [Compound 681] | ***** (>2.5° C.=*****)
10 | Cc1cc(N2CC[C@](C)(c3ccccc3)C2)cn2nc(C(=O)NC3(CO)CCCN(c4cccc(C(=O)O)n4)C3)nc12 (stereo partly drawn) [Compound 682, 6-[3-(hydroxymethyl)-3-[[8-methyl-6-[(3R)-3-methyl-3-phenyl-pyrrolidin-1-yl]-[1,2,4]triazolo[1,5-a]pyridine-2-carbonyl]amino]-1-piperidyl]pyridine-2-carboxylic acid] | ***** (>2.5° C.=*****)
11 | COC(C)(CC(=O)N1CC[C@@]2(CCN(C(=O)c3nc4c(C)cc(N5CC[C@](C)(c6ccccc6)C5)cn4n3)C2)C1)C(=O)O (stereo partly drawn) [Compound 706, 2-methoxy-2-methyl-4-[(5R)-2-[8-methyl-6-[(3R)-3-methyl-3-phenyl-pyrrolidin-1-yl]-[1,2,4]triazolo[1,5-a]pyridine-2-carbonyl]-2,7-diazaspiro[4.4]nonan-7-yl]-4-oxo-butanoic acid] | ***** (>2.5° C.=*****)
12 | Cc1cc(N2CC3(CCC3c3cccc(F)c3)C2)cn2nc(C(=O)N3CC[C@@]4(CCN(c5cccc(C(=O)O)n5)C4)C3)nc12 (stereo partly drawn) [Compound 737] | ***** (>2.5° C.=*****)
13 | Cc1cc(N2CC[C@](C)(c3ccccc3)C2)cn2nc(C(=O)NC3CC4(C3)CN(C(=O)C3CC(C)(C(=O)O)C3)C4)nc12 (stereo partly drawn) [Compound 680] | ***** (>2.5° C.=*****)
14 | CCC(=O)NCC12COC(c3nc4c(C)cc(N5CC[C@](C)(c6ccccc6)C5)cn4n3)(C1)C2c1n[nH]c(C)n1 (stereo partly drawn) [Compound 588] | ***** (>2.5° C.=*****)
15 | Cc1cc(N2CC[C@@](C)(n3ccc(C(F)(F)F)n3)C2)cn2nc(C34CC(CO3)C4c3nc(N)n[nH]3)nc12 (stereo partly drawn) [Compound 496, 5-(1-(8-methyl-6-((R)-3-methyl-3-(3-(trifluoromethyl)-1H-pyrazol-1-yl)pyrrolidin-1-yl)-[1,2,4]triazolo[1,5-a]pyridin-2-yl)-2-oxabicyclo[2.1.1]hexan-5-yl)-1H-1,2,4-triazol-3-amine] | **** (>1.5-2.5° C.=****)
